Data: the Kinase Knowledgebase extract (Sharma et al. 2016)

The compounds below were run against CDK2 (human) (UniProt P24941) (assay: Enzyme Assay).
With `N[C@H]1CC[C@H](Nc2nc(NCCCN3CCOCC3)c3ncn(C4CCCC4)c3n2)CC1` the IC50 was 116 nM. Work on `CCNc1nc(N[C@H]2CC[C@H](N)CC2)nc2c1ncn2C1CCCC1` yielded an IC50 of 13 nM. `CC(C)n1cnc2c(NCCCC(=O)c3ncc[nH]3)nc(N[C@H]3CC[C@H](N)CC3)nc21` gave an IC50 of 840 nM. In the case of `CCCCCNc1nc(N[C@H]2CC[C@H](N)CC2)nc2c1ncn2C1CCCC1`, the IC50 is reported as 53 nM. `N[C@H]1CC[C@H](Nc2nc(NNCC(F)(F)F)c3ncn(C4CCCC4)c3n2)CC1` was tested, and the IC50 was 58 nM. `N[C@H]1CC[C@H](Nc2nc(NCc3cccs3)c3ncn(C4CCCC4)c3n2)CC1` was tested, and the IC50 was 56 nM. With `N[C@H]1CC[C@H](Nc2nc(NCCc3ccncc3)c3ncn(C4CCCC4)c3n2)CC1` the IC50 was 69 nM. `CCCCNc1nc(N[C@H]2CC[C@H](N)CC2)nc2c1ncn2C1CCCC1` was tested, and the IC50 was 23 nM. `CC(C)n1cnc2c(NCC3CC3)nc(N[C@H]3CC[C@H](N)CC3)nc21` was tested, and the IC50 was 141 nM. `N[C@H]1CC[C@H](Nc2nc(NCCCO)c3ncn(C4CCCC4)c3n2)CC1` was tested, and the IC50 was 18 nM. `CCCCCCCCNc1nc(N[C@H]2CC[C@H](N)CC2)nc2c1ncn2C1CCCC1` was tested, and the IC50 was 360 nM. For `N[C@H]1CC[C@H](Nc2nc(NCCCCc3ccccc3)c3ncn(C4CCCC4)c3n2)CC1`, the IC50 was 59 nM.
